These results are taken from ChEMBL document CHEMBL4613242, “Thiopeptide Defense by an Ant's Bacterial Symbiont” (2020).

What all share (assay type): functional
The subject of assay [1] is Pseudonocardia. Nature of the assay: Antimicrobial activity against Pseudonocardia 17SE-9 at 0.1 ug measured on day 5 by agar diffusion assay. The settings on record: 17SE-9, 120 h, read-out: DIZ. For orientation: A growth-free zone around the sample is the usual read-out of agar diffusion tests.
Assay [2] deals with Pseudonocardia. Briefly: Antimicrobial activity against Pseudonocardia 17SE-8 at 0.1 ug measured on day 5 by agar diffusion assay. The settings on record: 17SE-8, 120 h, read-out: DIZ.
Assay [3] relates to Pseudonocardia. Nature of the assay: Antimicrobial activity against Pseudonocardia PLR1 at 0.1 ug measured on day 5 by agar diffusion assay. The settings on record: PLR1, 120 h, read-out: DIZ.
Assay [4] has as its system Pseudonocardia. Nature of the assay: Antimicrobial activity against Pseudonocardia 17SE-10 at 0.1 ug measured on day 5 by agar diffusion assay. The settings on record: 17SE-10, 120 h, read-out: DIZ.
Another assay has as its system Candida albicans. Briefly: Antimicrobial activity against Candida albicans SC5314 at 0.1 ug measured at 24 hrs by agar diffusion assay. The settings on record: SC5314, 24 h, read-out: DIZ.
Another assay has as its system Escovopsis sp. Nature of the assay: Antimicrobial activity against Escovopsis sp. at 0.1 ug measured on day 5 by agar diffusion assay. The settings on record: 120 h, read-out: DIZ.
The next assay deals with Trichoderma harzianum. Briefly: Antimicrobial activity against Trichoderma harzianum T22 at 0.1 ug measured on day 5 by agar diffusion assay. The settings on record: T22, 120 h, read-out: DIZ.
The test system of assay [5] is Pseudonocardia. Briefly: Antimicrobial activity against Pseudonocardia 18PO-3 at 0.1 ug measured on day 5 by agar diffusion assay. The settings on record: 18PO-3, 120 h, read-out: DIZ.
The subject of a further assay is Bacillus subtilis. Briefly: Antimicrobial activity against Bacillus subtilis 3610 at 0.1 ug measured at 24 hrs by agar diffusion assay. The settings on record: Bacillus subtilis, 3610, 24 h; read-out: DIZ.
The subject of assay [6] is Pseudonocardia. Briefly: Antimicrobial activity against Pseudonocardia 17SM-1 at 0.1 ug measured on day 5 by agar diffusion assay. The settings on record: 17SM-1, 120 h, read-out: DIZ.
The subject of assay [7] is Pseudonocardia. Briefly: Antimicrobial activity against Pseudonocardia 18AZ-4 at 0.1 ug measured on day 5 by agar diffusion assay. The settings on record: 18AZ-4, 120 h, read-out: DIZ.

On to `C=C(NC(=O)C(=C)NC(=O)c1csc(-c2ccc3c(n2)-c2csc(n2)-c2csc(n2)[C@@H]2C(C)C[C@H](O)N2C(=O)[C@H](Cc2ccc(O)cc2)NC(=O)C2CSC(=N2)[C@H](Cc2ccccc2)NC(=O)c2csc(n2)[C@H](CC(N)=O)NC(=O)c2nc-3oc2C)n1)C(=O)O` (stereo partly specified), for which the zone of inhibition at 0.1 µg/disc in the assay with Pseudonocardia [1] was 0 mm; in the assay with Pseudonocardia [2], 18.7 mm; with Pseudonocardia [3], 18 mm; with Pseudonocardia [4], 13.7 mm; in the assay with Candida albicans, 0 mm; in the assay with Escovopsis sp., 0 mm. For the same compound, the zone of inhibition at 0.1 µg/disc came to 0 mm in the assay with Trichoderma harzianum; 20 mm with Pseudonocardia [5]; 9.7 mm in the assay on Bacillus subtilis; 28.3 mm with Pseudonocardia [6]; 23 mm in the assay with Pseudonocardia [7].
